Data taken from the NIST ThermoML archive (doi:10.1016/j.tca.2013.02.009).

Experiment: molar heat capacity at constant pressure
Conditions: 101.33 kPa, Crystal, Large sample (1 g) DSC

[O-2].[O-2].[O-2].[Y+3].[Y+3] [yttrium oxide (Y2O3)]
Conditions | molar heat capacity at constant pressure [J/K/mol]
603 K | 122.98
613 K | 123.25
623 K | 123.52
633 K | 123.77
643 K | 124
653 K | 124.22
663 K | 124.43
673 K | 124.63
683 K | 124.82
693 K | 125
703 K | 125.16
713 K | 125.32
723 K | 125.47
733 K | 125.62
743 K | 125.75
753 K | 125.88
763 K | 126
773 K | 126.12
783 K | 126.22
793 K | 126.33
803 K | 126.42
813 K | 126.52
823 K | 126.6
833 K | 126.68
843 K | 126.76
853 K | 126.83
863 K | 126.9
873 K | 126.97
883 K | 127.03
893 K | 127.09
903 K | 127.14
913 K | 127.19
923 K | 127.24
933 K | 127.28
943 K | 127.32
953 K | 127.36
963 K | 127.4
973 K | 127.43
983 K | 127.46
993 K | 127.49
1003 K | 127.52
1013 K | 127.54
1023 K | 127.57
1033 K | 127.59
1043 K | 127.61
1053 K | 127.62
1063 K | 127.64
1073 K | 127.65
1083 K | 127.66
1093 K | 127.67
1103 K | 127.68
1113 K | 127.68
1123 K | 127.68
1133 K | 127.69
1143 K | 127.69
1153 K | 127.69
1163 K | 127.7
1173 K | 127.7
1183 K | 127.7
1193 K | 127.7
1203 K | 127.69
